# Measured values: patent US20260001893A1, “SMALL MOLECULE MODULATORS OF STAT6” (Gilead Sciences, Inc., priority 2024, published 2026)
# Tested on: Eotaxin-3 (CCL26) release in human whole blood stimulated with IL-4
# Test: Human whole blood eotaxin-3 assay (IL-4 stimulated eotaxin-3 release)
# Type: cell-based
# Details: Homo sapiens, 48 h, human whole blood stimulated with recombinant human IL-4, 48 h, geometric mean; for EC50: inhibition of eotaxin-3 release, given for test compounds with >80% Emax; for Emax: given for test compounds with <80% Emax
# Method: Human Whole Blood Eotaxin-3 Assay
# This was a human whole blood assay using recombinant human Interleukin 4 to stimulate the blood and measuring the ability of the test compounds to inhibit eotaxin-3 release. The biological activities of the test compounds have been tested in human whole blood stimulated with IL-4 measuring Eotaxin-3 release. The test compounds were added to 384 well clear flat-bottom plate in a 4-fold serial dilution in triplicates using a liquid handler. Human whole blood stabilized in lithium-heparin tubes was added in a volume of 65 μL per well, resulting in a final DMSO concentration of 0.5%. The plate is incubated for 2 h at 37° C. under 5% CO2/95% air. Subsequently, 5 μL of recombinant human IL-4 (R&D Systems, cat #204-ILB) was added to the wells to a final concentration of […]. The plate was incubated for 48 h at 37° C. under 5% CO2/95% air. The plate was spun down for 10 minutes at 500×g and 20 μL supernatant was harvested and transferred to a 384 well v-bottom plate using a liquid handler and stored at −20° C. until further analysis. 10 μL supernatant was used to measure the level of Eotaxin-3 (CCL26) using Human Eotaxin-3 MSD kit from Mesocsale (Cat #K251UEK-4). The assay was performed according to the manufacture instructions.
# The data from the human whole blood eotaxin-3 assay is shown below for Examples 1ab3, 1ab6, 1d23, and 1d4 (where the effect in % is plotted against the test concentration in M on a log-scale).
Structure (SMILES),EC50,Emax
"CNc1ccn(-c2ccnc3c2cc([C@H](C)N2CC=C(c4c(C)cc(C(=O)N(C)C)cc4F)CC2)n3C)c(=O)c1 [Example 1af82, (S)-3-fluoro-N,N,5-trimethyl-4-(1-(1-(1-methyl-4-(4-(methylamino)-2-oxopyridin-1 (2H)-yl)-1H-pyrrolo[2,3-b]pyridin-2-yl)ethyl)-1,2,3,6-tetrahydropyridin-4-yl)benzamide]",2.61 nM,–
"[2H]C([2H])([2H])N(C(=O)c1cc(C)c(C2=CCN([C@@H](C)c3cc4c(-n5ccc(NC)cc5=O)ccnc4n3C)CC2)c(F)c1)C([2H])([2H])[2H] [Example 1af83, (S)-3-fluoro-5-methyl-N,N-bis(methyl-d3)-4-(1-(1-(1-methyl-4-(4-(methylamino)-2-oxopyridin-1 (2H)-yl)-1H-pyrrolo[2,3-b]pyridin-2-yl)ethyl)-1,2,3,6-tetrahydropyridin-4-yl)benzamide]",2.67 nM,–
"[2H]C([2H])([2H])N(C(=O)c1ccc(C2CCN(Cc3cc4c(-n5ccc(N)c(C)c5=O)ccnc4n3C)CC2)cc1)C([2H])([2H])[2H] [Example 1d22, 4-[1-[[4-(4-Amino-3-methyl-2-oxo-1-pyridyl)-1-methyl-pyrrolo[2,3-b]pyridin-2-yl]methyl]-4-piperidyl]-N,N-bis(trideuteriomethyl)benzamide]",–,70 to 80%
"[2H]C([2H])([2H])N(C(=O)c1ccc(C2CCN(Cc3cc4c(-n5ccc6c(c5=O)CCN6)ccnc4n3C)CC2)cc1)C([2H])([2H])[2H] [Example 1d24, 4-[1-[[1-Methyl-4-(4-oxo-2,3-dihydro-1H-pyrrolo[3,2-c]pyridin-5-yl)pyrrolo[2,3-b]pyridin-2-yl]methyl]-4-piperidyl]-N,N-bis(trideuteriomethyl)benzamide]",–,70 to 80%
"CNc1ccn(-c2ccnc3c2cc(CN2CCC(c4ccc(C(=O)N(C)C)cc4Cl)CC2)n3C)c(=O)c1 [Example 1d37, 3-Chloro-N,N-dimethyl-4-[1-[[1-methyl-4-[4-(methylamino)-2-oxo-1-pyridyl]pyrrolo[2,3-b]pyridin-2-yl]methyl]-4-piperidyl]benzamide]",148 nM,–
"CN(C)C(=O)c1ccc(C2CCN(Cc3cc4c(-n5ccc(N)c(C(=O)CCCO)c5=O)ccnc4n3C)CC2)cc1 [Example 1d44, 4-[1-[[4-[4-Amino-3-(4-hydroxybutanoyl)-2-oxo-1-pyridyl]-1-methyl-pyrrolo[2,3-b]pyridin-2-yl]methyl]-4-piperidyl]-N,N-dimethyl-benzamide]",307 nM,–
"CNc1ccn(-c2ccnc3c2cc(CN2CC=C(c4c(C)cc(C(=O)N(C)C)cc4F)CC2)n3C)c(=O)c1 [Example 1m56, 3-Fluoro-N,N,5-trimethyl-4-(1-((1-methyl-4-(4-(methylamino)-2-oxopyridin-1 (2H)-yl)-1H-pyrrolo[2,3-b]pyridin-2-yl)methyl)-1,2,3,6-tetrahydropyridin-4-yl)benzamide]",3.64 nM,–
"CNc1ccn(-c2ccnc3c2cc(CN2CC=C(c4c(C)cc(C(=O)N(C)C)cc4Cl)CC2)n3C)c(=O)c1 [Example 1m57, 3-Chloro-N,N,5-trimethyl-4-(1-((1-methyl-4-(4-(methylamino)-2-oxopyridin-1 (2H)-yl)-1H-pyrrolo[2,3-b]pyridin-2-yl)methyl)-1,2,3,6-tetrahydropyridin-4-yl)benzamide]",27 nM,–
"CNc1ccn(-c2ccnc3c2cc(CN2CC=C(c4ncc(C(=O)N(C)C)cc4C(F)(F)F)CC2)n3C)c(=O)c1 [Example 1m69, N,N-Dimethyl-6-[1-[[1-methyl-4-[4-(methylamino)-2-oxo-1-pyridyl]pyrrolo[2,3-b]pyridin-2-yl]methyl]-3,6-dihydro-2H-pyridin-4-yl]-5-(trifluoromethyl)pyridine-3-carboxamide]",319 nM,–
"CN(C)C(=O)c1ccc(C2=CCN(Cc3cc4c(-n5ccc6c(c5=O)CCN6)ccnc4n3C)CC2)cn1 [Example 1m70, N,N-dimethyl-1′-((1-methyl-4-(4-oxo-1,2,3,4-tetrahydro-5H-pyrrolo[3,2-c]pyridin-5-yl)-1H-pyrrolo[2,3-b]pyridin-2-yl)methyl)-1′, 2′, 3′, 6′-tetrahydro-[3,4′-bipyridine]-6-carboxamide]",–,20 to 30%
"[2H]C([2H])([2H])N(C(=O)c1ccc(C2CCN([C@@H](C)c3cc4c(-n5ccc(NC)cc5=O)ccnc4n3C)CC2)cc1)C([2H])([2H])[2H] [Example 1m74, (S)—N,N-bis(methyl-d3)-4-(1-(1-(1-methyl-4-(4-(methylamino)-2-oxopyridin-1 (2H)-yl)-1H-pyrrolo[2,3-b]pyridin-2-yl)ethyl)piperidin-4-yl)benzamide]",12.9 nM,–
"CNC(=O)c1cc(C)c(C2=CCN(Cc3cc4c(-n5ccc(NC)cc5=O)ccnc4n3C)CC2)c(F)c1 [Example 1m75, 3-fluoro-N,5-dimethyl-4-(1-((1-methyl-4-(4-(methylamino)-2-oxopyridin-1 (2H)-yl)-1H-pyrrolo[2,3-b]pyridin-2-yl)methyl)-1,2,3,6-tetrahydropyridin-4-yl)benzamide]",17.8 nM,–
"Cc1cc(C(=O)N(C)C)nnc1C1=CCN(Cc2cc3c(-n4ccc5c(c4=O)CCN5)ccnc3n2C)CC1 [Example 1m81, N,N,5-trimethyl-6-(1-((1-methyl-4-(4-oxo-1,2,3,4-tetrahydro-5H-pyrrolo[3,2-c]pyridin-5-yl)-1H-pyrrolo[2,3-b]pyridin-2-yl)methyl)-1,2,3,6-tetrahydropyridin-4-yl)pyridazine-3-carboxamide]",–,30 to 40%
"CN(C)C(=O)c1ccc(C2=CCN(Cc3cc4c(-n5ccc6c(c5=O)CCN6)ccnc4n3C)CC2)cc1F [Example 1m83, 2-fluoro-N,N-dimethyl-4-(1-((1-methyl-4-(4-oxo-1,2,3,4-tetrahydro-5H-pyrrolo[3,2-c]pyridin-5-yl)-1H-pyrrolo[2,3-b]pyridin-2-yl)methyl)-1,2,3,6-tetrahydropyridin-4-yl)benzamide]",–,30 to 40%

# Second part, led by results:
EC50,Structure (SMILES),Emax
26.6 nM,"[2H]C([2H])([2H])N(C(=O)c1cc(C)c(C2=CCN(Cc3cc4c(-n5ccc(N)nc5=O)ccnc4n3C)CC2)c(F)c1)C([2H])([2H])[2H] [Example 1m78, 4-(1-((4-(4-amino-2-oxopyrimidin-1 (2H)-yl)-1-methyl-1H-pyrrolo[2,3-b]pyridin-2-yl)methyl)-1,2,3,6-tetrahydropyridin-4-yl)-3-fluoro-5-methyl-N,N-bis(methyl-d3)benzamide]",–
133 nM,"[2H]C([2H])([2H])N(C(=O)c1ccc(C2CCN([C@@H](C)c3cc4c(-n5cc(F)c(N)nc5=O)ccnc4n3C)CC2)cc1)C([2H])([2H])[2H] [Example 1m80, (S)-4-(1-(1-(4-(4-amino-5-fluoro-2-oxopyrimidin-1 (2H)-yl)-1-methyl-1H-pyrrolo[2,3-b]pyridin-2-yl)ethyl)piperidin-4-yl)-N,N-bis(methyl-d3)benzamide]",–
18.4 nM,"C[C@@H](c1cc2c(-n3ccc4c(c3=O)CCN4)ccnc2n1C)N1CCC(c2ccc(C(=O)N(C)C)cc2)CC1 [Example 1m82, (S)—N,N-dimethyl-4-(1-(1-(1-methyl-4-(4-oxo-1,2,3,4-tetrahydro-5H-pyrrolo[3,2-c]pyridin-5-yl)-1H-pyrrolo[2,3-b]pyridin-2-yl)ethyl)piperidin-4-yl)benzamide]",–
3.69 nM,"Cc1cc(C(=O)N(C)C)ccc1C1=CCN([C@@H](C)c2cc3c(-n4ccc(N)c(F)c4=O)ccnc3n2C)CC1 [Example 1m84, (S)-4-(1-(1-(4-(4-amino-3-fluoro-2-oxopyridin-1 (2H)-yl)-1-methyl-1H-pyrrolo[2,3-b]pyridin-2-yl)ethyl)-1,2,3,6-tetrahydropyridin-4-yl)-N,N,3-trimethylbenzamide]",–
128 nM,"CNc1ccn(-c2ccnc3[nH]c(C(C)N4CC=C(c5c(C)cc(C(=O)N(C)C)cc5F)CC4)cc23)c(=O)c1 (stereo not shown) [Example 1m85, 3-fluoro-N,N,5-trimethyl-4-(1-(1-(4-(4-(methylamino)-2-oxopyridin-1 (2H)-yl)-1H-pyrrolo[2,3-b]pyridin-2-yl)ethyl)-1,2,3,6-tetrahydropyridin-4-yl)benzamide]",–
672 nM,"Cc1cc(C(=O)N(C)C)ccc1C1=CCN([C@H](C)c2cc3c(-n4ccc(N)c(F)c4=O)ccnc3n2C)CC1 [Example 1m86, (R)-4-(1-(1-(4-(4-amino-3-fluoro-2-oxopyridin-1 (2H)-yl)-1-methyl-1H-pyrrolo[2,3-b]pyridin-2-yl)ethyl)-1,2,3,6-tetrahydropyridin-4-yl)-N,N,3-trimethylbenzamide]",–
4.55 nM,"Cc1cc(C(=O)N(C)C)cc(F)c1C1=CCN(Cc2cc3c(-n4ccc(N)c(C)c4=O)ccnc3n2C)CC1 [Example 1m87, 4-(1-((4-(4-amino-3-methyl-2-oxopyridin-1 (2H)-yl)-1-methyl-1H-pyrrolo[2,3-b]pyridin-2-yl)methyl)-1,2,3,6-tetrahydropyridin-4-yl)-3-fluoro-N,N,5-trimethylbenzamide]",–
4.8 nM,"CNc1ccn(-c2ccnc3c2cc(CN2CC=C(c4c(C)cc(C(=O)N(C)C)cc4F)CC2)n3C)c(=O)n1 [Example 1m88, 3-fluoro-N,N,5-trimethyl-4-(1-((1-methyl-4-(4-(methylamino)-2-oxopyrimidin-1 (2H)-yl)-1H-pyrrolo[2,3-b]pyridin-2-yl)methyl)-1,2,3,6-tetrahydropyridin-4-yl)benzamide]",–
